Laboratory results reported in patent publication US20150197497A1, “SELECTIVE INHIBITORS OF HISTONE DEACETYLASE ISOFORM 6 AND METHODS THEREOF” (DANA-FARBER CANCER INSTITUTE, INC., priority 2011, published 2015).
pEC50, pIC50: −log10 of the molar value.

Tests used:
acetylated tubulin = assay: High-content image analysis of induction of acetylated tubulin in A549 cells
Method: (§1) Cells were treated with each test HDACi compound with an automated pin transfer instrument (Janus, Perkin Elmer) and incubated for 8 hours. […] Fixation solution was aspirated and 90 μL of washing solution (0.1% Triton X-100 in PBS) was added prior to 10 minute incubation at 4° C. Washing solution was aspirated and cells were incubated at 4° C. for about 1 hour in blocking solution (0.1% Triton X-100+2% BSA in PBS). Washing solution was aspirated, and cells were incubated for about 1 hour at 4° C. in primary antibody for acetylated-tubulin (Sigma T7451) and acetylated-histone (Cell Signaling #9441L) at a 1:1000 dilution in blocking solution. Primary antibody solution was aspirated, and cells were washed three times in 90 μL of washing solution. […] Secondary antibody and nuclear staining solution was aspirated and cells were washed three times in 90 μL of washing solution. After the third wash, 50 μL of PBS was added to each well. Image acquisition was done on a high content imaging microscope (ImageXpress Micro, Molecular Devices), and image analysis (MetaXpress, Molecular Devices) was performed to obtain average acetylated-tubulin and acetylated-histone signal per cell based on treatment. Replicate experimental data from incubations with inhibitor were normalized to DMSO controls.

acetylated histones = assay: High-content image analysis of induction of acetylated histones in A549 cells; settings: for pEC50: Homo sapiens, A549, 8 h, read-out: EC50 for half-maximal induction of acetylated histones (AcHistone)
Method: as §1

HDAC6 = biological target: T1, HDAC6 (Homo sapiens, UniProt Q9UBN7); assay: In vitro HDAC enzyme inhibition assay, HDAC6; format: biochemical; settings: recombinant full-length HDAC6, substrate MAZ1600 9 μM
T1 construct: Recombinant, full-length HDAC protein (BPS Biosciences) was incubated with fluorophore conjugated substrate; purchased BPS Biosciences
T1 sequence (Q9UBN7 1-1215): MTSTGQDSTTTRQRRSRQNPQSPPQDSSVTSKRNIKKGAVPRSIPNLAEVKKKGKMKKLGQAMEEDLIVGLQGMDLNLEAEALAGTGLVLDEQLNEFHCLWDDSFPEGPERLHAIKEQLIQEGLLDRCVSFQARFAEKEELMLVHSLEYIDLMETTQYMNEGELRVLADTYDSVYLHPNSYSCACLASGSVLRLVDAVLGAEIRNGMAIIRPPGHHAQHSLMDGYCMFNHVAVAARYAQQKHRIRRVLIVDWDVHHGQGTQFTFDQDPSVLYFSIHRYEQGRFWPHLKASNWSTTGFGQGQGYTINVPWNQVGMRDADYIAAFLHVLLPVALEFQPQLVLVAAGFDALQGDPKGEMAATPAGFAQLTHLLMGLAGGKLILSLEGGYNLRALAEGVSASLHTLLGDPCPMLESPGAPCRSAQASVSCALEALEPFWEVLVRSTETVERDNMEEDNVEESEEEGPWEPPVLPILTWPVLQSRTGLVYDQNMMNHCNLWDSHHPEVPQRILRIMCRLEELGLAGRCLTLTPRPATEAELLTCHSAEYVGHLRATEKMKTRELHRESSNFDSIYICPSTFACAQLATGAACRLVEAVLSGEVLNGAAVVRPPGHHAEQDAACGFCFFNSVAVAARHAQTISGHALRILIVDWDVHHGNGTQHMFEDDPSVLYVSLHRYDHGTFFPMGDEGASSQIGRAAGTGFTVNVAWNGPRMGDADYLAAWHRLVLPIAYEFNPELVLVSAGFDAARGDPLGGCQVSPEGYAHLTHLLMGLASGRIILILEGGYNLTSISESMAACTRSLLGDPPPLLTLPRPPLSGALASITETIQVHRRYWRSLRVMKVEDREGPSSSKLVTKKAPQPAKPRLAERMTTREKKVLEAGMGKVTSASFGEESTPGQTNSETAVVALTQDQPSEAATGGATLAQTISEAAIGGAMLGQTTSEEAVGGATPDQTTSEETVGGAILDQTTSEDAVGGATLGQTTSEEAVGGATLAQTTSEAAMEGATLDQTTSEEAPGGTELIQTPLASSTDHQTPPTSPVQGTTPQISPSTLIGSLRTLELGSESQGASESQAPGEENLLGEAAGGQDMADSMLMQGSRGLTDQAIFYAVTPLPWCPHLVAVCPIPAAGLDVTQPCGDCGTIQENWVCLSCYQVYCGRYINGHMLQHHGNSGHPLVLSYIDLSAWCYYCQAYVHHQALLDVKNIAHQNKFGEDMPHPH
Method: In vitro Histone Deacetylase enzyme assays were performed using Class I (isoforms: HDAC1, HDAC2, HDAC3 and HDAC8), class IIa (isoforms: HDAC4, HDAC5, HDAC7 and HDAC9) and class IIb (isoform HDAC6).
HDAC activities were determined in vitro with an optimized homogenous assay performed in a 384-well plate. Recombinant, full-length HDAC protein (BPS Biosciences) was incubated with fluorophore conjugated substrate, MAZ1600 and MAZ1675, at Km=[S]. […] Reactions were performed in assay buffer (50 mM HEPES, 100 mM KCl, 0.001% Tween-20, 0.05% BSA, 200 μM tris(2-carboxyethyl)phosphine (TCEP), pH 7.4) and followed for fluorogenic release of 7-amino-4-methylcoumarin from substrate upon deacetylase and trypsin enzymatic activity. Fluorescence measurements were obtained every five minutes using a multilabel plate reader and plate-stacker (Envision; Perkin-Elmer). Each plate was analyzed by plate repeat, and the first derivative within the linear range was imported into analytical software (Spotfire DecisionSite and GraphPad Prism). Replicate experimental data from incubations with inhibitor were normalized to controls.

Row | pEC50 (acetylated histones) | pEC50 (acetylated tubulin; Homo sapiens, A549, 8 h, read-out: EC50 for half-maximal induction of acetylated tubulin (AcTubulin)) | pIC50 (HDAC6) | SMILES | levels of acetylated tubulin, dose response (in words) (acetylated tubulin; A549 cells, FIG. 11) | levels of acetylated histone, dose response (in words) (acetylated histones; A549 cells, FIG. 11) | AcHistone/AcTubulin in cell selectivity toward HDAC6 (acetylated tubulin; ratio of EC50 acetylated histone to EC50 acetylated tubulin, A549 cells)
1 | 6.84 | – | – | O=C(CCCCCCC(=O)Nc1ccccc1)NO [SAHA, suberoylanilide hydroxamic acid, reference compound] | dose-dependent increase | dose-dependent increase | –
2 | 5.60 | 6.91 | 5.83 | Cc1ccc2c(c1)nnn2Cc1ccc(C(=O)NO)cc1 [C2, N-hydroxy-4-((5-methyl-1H-benzo[d][1,2,3]triazol-1-yl)methyl)benzamide] | – | – | 20.3
